From patent publication US8426408B2, “Pyrimidine inhibitors of kinases” (AbbVie Inc., priority 2009, dated 2013)

Columns and labels:
[1] = target: T1, Aurora B (Homo sapiens, UniProt Q96GD4); assay: Aurora B enzyme inhibition (time-resolved fluorescence, histone H3 peptide); type: biochemical; details: 1 mM ATP
T1 construct: Active Aurora B enzyme (recombinant residues 1-344)
Procedure, shortened: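 IC50s came from an exponential fit of inhibition against inhibitor concentration, with phosphorylation read as the 665/615 nm time-resolved fluorescence ratio after EDTA stop using Eu-anti-phospho-H3 and SA-APC. The 1 h reaction used Aurora B 1-344 plus GST-INCENP, biotin-histone H3 1-21 peptide and 1 mM ATP in pH 7.4 HEPES buffer.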

[2] = target: T2, Aurora A (Homo sapiens, UniProt O14965); assay: Aurora A enzyme inhibition (time-resolved fluorescence, STK substrate-2); type: biochemical; details: 1 mM ATP
T2 sequence (O14965 1-403): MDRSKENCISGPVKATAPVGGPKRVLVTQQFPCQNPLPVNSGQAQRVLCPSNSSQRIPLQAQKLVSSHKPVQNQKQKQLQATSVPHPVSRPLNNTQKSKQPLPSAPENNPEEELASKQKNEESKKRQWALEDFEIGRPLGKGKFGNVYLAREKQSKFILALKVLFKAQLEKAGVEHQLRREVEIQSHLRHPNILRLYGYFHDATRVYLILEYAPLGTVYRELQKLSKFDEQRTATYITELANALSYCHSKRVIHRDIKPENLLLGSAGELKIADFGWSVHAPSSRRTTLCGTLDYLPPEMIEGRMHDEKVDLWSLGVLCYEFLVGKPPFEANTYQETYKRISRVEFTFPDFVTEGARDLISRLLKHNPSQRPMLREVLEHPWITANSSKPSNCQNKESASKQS
Procedure, shortened: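 Phosphorylation of biotinylated STK substrate-2 at 1 mM ATP, 1 h, Hepes buffer pH 7.4 (MgCl2, sodium orthovanadate, Triton X-100). After EDTA quench, 665/615 nm time-resolved fluorescence ratio read via europium anti-phospho antibody and SA-XL665; IC50 from exponential fit versus inhibitor concentration.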

[3] = system: NCI-H1299 cells; assay: Induction of polyploidy in H1299; type: cell-based, Human; details: NCI-H1299, 48 hours; for EC15: Homo sapiens, read-out: EC15 (concentration of inhibitor necessary to induce polyploidy in 15% of cells)
Procedure, shortened: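 Potency is given as EC15, the inhibitor concentration giving 15% polyploid cells, from log dose-response least-squares analysis. Polyploid cells (nuclear area >750 μ^2, ≥4N) were counted by Hoechst high-content microscopy. H1299 cells had been exposed for 48 h at 37 C in duplicate, then fixed in 3% formalin.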

[4] = target: KDR (Homo sapiens, UniProt P35968); assay: KDR HTRF in vitro kinase assay; type: biochemical; parameters: purified enzyme (His6-KDR 789-1354, MW 63 kD); His6 (N); details: 1 mM ATP; read-out: KDR enzyme inhibition data (Ki)
Procedure, shortened: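 His6-KDR 789-1354 (7 ng/well) with 0.5 μM biotinylated peptide substrate and 1 mM ATP in HEPES pH 7.1, MgCl2/MnCl2, 60 min at room temperature. EDTA-quenched, detected by streptavidin-XL-665 plus Eu-kryptate anti-phosphotyrosine HTRF after 3 h; IC50 from 620/665 nm ratio.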

T1 sequence (Q96GD4 whole entry, the tested form may be a part): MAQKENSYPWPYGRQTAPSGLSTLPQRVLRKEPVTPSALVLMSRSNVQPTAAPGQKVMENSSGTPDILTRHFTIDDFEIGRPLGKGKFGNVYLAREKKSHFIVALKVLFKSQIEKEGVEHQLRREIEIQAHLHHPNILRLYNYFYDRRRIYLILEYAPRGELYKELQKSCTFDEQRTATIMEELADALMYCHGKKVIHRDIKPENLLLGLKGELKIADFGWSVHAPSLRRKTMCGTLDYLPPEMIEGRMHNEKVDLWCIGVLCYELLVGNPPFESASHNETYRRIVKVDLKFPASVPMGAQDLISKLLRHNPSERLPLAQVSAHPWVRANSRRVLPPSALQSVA
T1 sequence (Q9NQS7 826-918 partner limits assumed): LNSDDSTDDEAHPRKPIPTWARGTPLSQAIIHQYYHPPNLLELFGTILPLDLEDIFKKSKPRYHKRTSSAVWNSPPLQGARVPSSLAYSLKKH
KDR, sequence (P35968 789-1354): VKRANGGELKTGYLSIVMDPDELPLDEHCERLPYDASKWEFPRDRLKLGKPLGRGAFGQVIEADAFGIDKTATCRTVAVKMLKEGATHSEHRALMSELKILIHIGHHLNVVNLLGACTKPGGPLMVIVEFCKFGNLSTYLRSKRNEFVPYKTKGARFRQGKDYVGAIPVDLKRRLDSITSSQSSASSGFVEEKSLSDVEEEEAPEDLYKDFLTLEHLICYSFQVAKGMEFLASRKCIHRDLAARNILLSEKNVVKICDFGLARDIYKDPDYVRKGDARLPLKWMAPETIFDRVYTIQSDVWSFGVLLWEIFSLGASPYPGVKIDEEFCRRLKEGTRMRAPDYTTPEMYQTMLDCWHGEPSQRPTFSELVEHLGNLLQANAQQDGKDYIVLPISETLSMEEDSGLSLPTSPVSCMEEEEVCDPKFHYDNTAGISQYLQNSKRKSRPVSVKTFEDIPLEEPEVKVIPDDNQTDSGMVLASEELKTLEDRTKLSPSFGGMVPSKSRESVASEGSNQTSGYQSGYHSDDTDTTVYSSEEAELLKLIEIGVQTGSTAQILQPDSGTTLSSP

Row | Ki [1] [µM] | Ki [2] [µM] | Ki [4] [µM] | Molecule | EC15 [3] [µM] | EC15 (concentration of inhibitor necessary to induce polyploidy in 15% of cells) [3]
1 | < 0.1 | < 0.1 | < 0.1 | NC(=O)[C@@H]1[C@H](Nc2nc(Nc3cnn(-c4ccccc4)c3)ncc2Cl)[C@H]2C=C[C@@H]1C2 [Example 174, (1S,2S,3R,4R)-3-({5-chloro-2-[(1-phenyl-1H-pyrazol-4-yl)amino]pyrimidin-4-yl}amino)bicyclo[2.2.1]hept-5-ene-2-carboxamide] | < 0.1 | –
2 | < 0.1 | < 0.1 | < 0.1 | Cc1cccc(Cn2cc(Nc3ncc(Cl)c(N[C@H]4[C@@H](C(N)=O)[C@@H]5C=C[C@H]4C5)n3)cn2)c1 [Example 178, (1S,2S,3R,4R)-3-[(5-chloro-2-{[1-(3-methylbenzyl)-1H-pyrazol-4-yl]amino}pyrimidin-4-yl)amino]bicyclo[2.2.1]hept-5-ene-2-carboxamide] | < 0.1 | –
3 | < 0.1 | < 0.1 | < 0.1 | NC(=O)[C@@H]1[C@H](Nc2nc(Nc3cnn(Cc4ccc5ccccc5c4)c3)ncc2Cl)[C@H]2C=C[C@@H]1C2 [Example 179, (1S,2S,3R,4R)-3-[(5-chloro-2-{[1-(2-naphthylmethyl)-1H-pyrazol-4-yl]amino}pyrimidin-4-yl)amino]bicyclo[2.2.1]hept-5-ene-2-carboxamide] | < 0.1 | –
4 | < 0.1 | < 0.1 | < 0.1 | COc1ccc(Cn2cc(Nc3ncc(Cl)c(N[C@H]4[C@@H](C(N)=O)[C@@H]5C=C[C@H]4C5)n3)cn2)cc1F [Example 192, (1S,2S,3R,4R)-3-[(5-chloro-2-{[1-(3-fluoro-4-methoxybenzyl)-1H-pyrazol-4-yl]amino}pyrimidin-4-yl)amino]bicyclo[2.2.1]hept-5-ene-2-carboxamide] | < 0.1 | –
5 | < 0.1 | < 0.1 | < 0.1 | (1S,2R)-2-{[5-chloro-2-({1-[2-(morpholin-4-yl)ethyl]-1H-pyrazol-4-yl}amino)pyrimidin-4-yl]amino}cyclopentanecarboxamide and (1R,2S)-2-{[5-chloro-2-({1-[2-(morpholin-4-yl)ethyl]-1H-pyrazol-4-yl}amino)pyrimidin-4-yl]amino}cyclopentanecarboxamide [Example 137] | – | B (“B” represents an EC15 of between 0.1 μM and 1 μM)
